# Source: patent US11807693B2 (priority 2014, dated 2023)
# Starred links: 1 amine or outer side, 2 acyl side, 3 side chain; linkers in the order of their positions; H or OH if unused. Non-standard residues stand in square brackets, D forms with d. Residues, ends and D or L forms follow the SMILES beside them. No end group written: not given here. *: point of attachment. Oic = O=C(O)[C@@H]1C[C@@H]2CCCC[C@@H]2N1; Phe(4-Cl) = N[C@@H](Cc1ccc(Cl)cc1)C(=O)O; γGlu = O=C(O)[C@H](CCC(=O)[*:2])N[*:1]; NMeR = CN[C@@H](CCCNC(=N)N)C(=O)O; Tridecanoyl = CCCCCCCCCCCCC(=O)*; hArg = N=C(N)NCCCC[C@H](N)C(=O)O; Cha = N[C@@H](CC1CCCCC1)C(=O)O; Gly(N-CH2CH2OH) = O=C(O)CNCCO; αMeL = CC(C)C[C@](C)(N)C(=O)O; αMeP = C[C@@]1(C(=O)O)CCCN1; β3hP = O=C(O)C[C@@H]1CCCN1; Nle = CCCC[C@H](N)C(=O)O; AEEA = NCCOCCOCC(=O)O; Aib = CC(C)(N)C(=O)O
# What was measured:
# Assay type in all cases: in vitro ADME
# [1] = In vitro stability in rat plasma
# Summary of the method: (§1)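 Peptide 5 μM final; rat plasma / liver homog. / kidney homog.; 37° C., 4 hr. Quench MeOH + IS, vortex 15 min RT, spin 5500 g 15 min; supernatant by HR LC-MS.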
# [2] = In vitro stability in rat kidney homogenate; details: rat, tissue homogenate
# Experimental: Apelin peptides were spiked into rat plasma, liver homogenate, and kidney homogenate, which were obtained from commercial sources, to a final concentration of 5 μM. The samples were then incubated at 37° C. over a period of 4 hr. […] In a typical experiment, an aliquot of 100 μL of sample was taken from the incubation vial, followed by addition of 300 μL of MeOH containing internal standard. The quenched sample was centrifuged at 5500 g for 15 min after 15 min vortex in room temperature. The supernatant was then analyzed by high resolution LC-MS. […] In vitro plasma, […], and kidney stability results are shown below in Table 14.
# [3] = In vitro stability in rat liver homogenate; details: tissue homogenate
# Summary of the method: as §1
"remaining at 4 h, 5 μM [1]","remaining at 4 h, 5 μM [2]","remaining at 4 h, 5 μM [3]",Molecule,"Stability at 4 hours (% Remaining) Plasma ([1]; 4 h, 5 μM)","Stability at 4 hours (% Remaining) Kidney ([2]; 4 h, 5 μM)","Stability at 4 hours (% Remaining) Liver ([3]; 4 h, 5 μM)"
27%,83%,87%,CCCCCCCCCCCCC(=O)N[C@@H](CCC(=O)NCCOCCOCC(=O)NCCOCCOCC(=O)N[C@@H](CCC(N)=O)C(=O)N[C@@H](CCCNC(=N)N)C(=O)N1CCC[C@H]1C(=O)N(C)[C@@H](CCCNC(=N)N)C(=O)N[C@@H](CC(C)C)C(=O)N(CCO)CC(=O)N[C@@H](Cc1c[nH]cn1)C(=O)N[C@@H](CCCCN)C(=O)NCC(=O)N1CCC[C@H]1C(=O)N[C@@H](CCCC)C(=O)N1CCC[C@H]1C(=O)N[C@@H](Cc1ccc(Cl)cc1)C(=O)O)C(=O)O [compound 467] ({Tridecanoyl-γGlu-AEEA-AEEA}-QRP[NMeR]L[Gly(N-CH2CH2OH)]HKGP[Nle]P[Phe(4-Cl)]-OH),–,–,–
87%,0%,2%,CCCCCCCCCCCCC(=O)N[C@@H](CCC(=O)NCCOCCOCC(=O)NCCOCCOCC(=O)N[C@@H](CCC(N)=O)C(=O)N[C@@H](CCCNC(=N)N)C(=O)N1CCC[C@H]1C(=O)N[C@@H](CCCCNC(=N)N)C(=O)N[C@@H](CC(C)C)C(=O)N[C@@H](CO)C(=O)N[C@@H](Cc1c[nH]cn1)C(=O)N[C@@H](CCCCN)C(=O)NCC(=O)N1[C@H](C(=O)N[C@@H](CCCC)C(=O)N2CCC[C@H]2C(=O)N[C@@H](Cc2ccc(Cl)cc2)C(=O)O)C[C@@H]2CCCC[C@@H]21)C(=O)O [compound 356] ({Tridecanoyl-γGlu-AEEA-AEEA}-QRP[hArg]LSHKG[Oic][Nle]P[Phe(4-Cl)]-OH),–,–,–
77%,3%,76%,CCCCCCCCCCCCC(=O)N[C@@H](CCC(=O)NCCOCCOCC(=O)NCCOCCOCC(=O)N[C@@H](CCC(N)=O)C(=O)N[C@@H](CCCNC(=N)N)C(=O)N1CCC[C@H]1C(=O)N(C)[C@@H](CCCNC(=N)N)C(=O)N[C@@H](CC1CCCCC1)C(=O)N[C@@H](CO)C(=O)N[C@@H](Cc1c[nH]cn1)C(=O)N[C@@H](CCCCN)C(=O)NCC(=O)N1[C@H](C(=O)N[C@@H](CCCC)C(=O)N2CCC[C@@]2(C)C(=O)N[C@@H](Cc2ccc(Cl)cc2)C(=O)O)C[C@@H]2CCCC[C@@H]21)C(=O)O [compound 412] ({Tridecanoyl-γGlu-AEEA-AEEA}-QRP[NMeR][Cha]SHKG[Oic][Nle][αMeP][Phe(4-Cl)]-OH),–,–,–

# The remaining lines, values behind:
Molecule,"remaining at 4 h, 5 μM [1]","remaining at 4 h, 5 μM [2]","remaining at 4 h, 5 μM [3]","Stability at 4 hours (% Remaining) Plasma ([1]; 4 h, 5 μM)","Stability at 4 hours (% Remaining) Kidney ([2]; 4 h, 5 μM)","Stability at 4 hours (% Remaining) Liver ([3]; 4 h, 5 μM)"
CCCCCCCCCCCCC(=O)N[C@@H](CCC(=O)NCCOCCOCC(=O)NCCOCCOCC(=O)N[C@H](CCC(N)=O)C(=O)N[C@@H](CCCNC(=N)N)C(=O)N1CCC[C@H]1CC(=O)N(C)[C@@H](CCCNC(=N)N)C(=O)N[C@@](C)(CC(C)C)C(=O)N[C@@H](CO)C(=O)N[C@@H](Cc1c[nH]cn1)C(=O)N[C@@H](CCCCN)C(=O)NCC(=O)N1[C@H](C(=O)N[C@@H](CCCC)C(=O)N2CCC[C@@]2(C)C(=O)N[C@@H](Cc2ccc(Cl)cc2)C(=O)O)C[C@@H]2CCCC[C@@H]21)C(=O)O [compound 553] ({Tridecanoyl-γGlu-AEEA-AEEA}-[dQ]R[β3hP][NMeR][αMeL]SHKG[Oic][Nle][αMeP][Phe(4-Cl)]-OH),> 90%,15%,29%,–,–,–
120 (QRP[NMeR][Cha]SHKG[Oic][Nle][Aib][Phe(4-Cl)]; not fully specified (N-terminus); ends and bridges not checked; also: 10K mPEG acetamide on N-terminal MerPr) [compound 120],–,–,–,68 % Remaining,<1.0 % Remaining,61 % Remaining
